Experiments:
Assay type in all cases: cell-based, mouse
RAW267.4 cells [1] = experiment: Cell proliferation of RAW267.4 cells (attached cell count after 3 days culture); settings: single agent 0.1, 1.0, 10 and 100 μM, control 0.1% ethanol vehicle, FIGS. 1A and B
Description: RAW267.4 cells were cultured for 3 days in Dulbecco's modification of Eagle's medium containing vehicle (0.1% ethanol), (A) alendronate, (B) genistein or (C) alendronate plus genistein. After culture, the number of attached cells on the dish was counted. Data are presented as the mean±standard deviation of two replicate wells per data set using different dishes and cell preparation. *P<0.001 vs. control group (grey bar) as determined by one-way analysis of variance and Tukey-Kramer post hoc test.
RAW267.4 cells (1×10^5/ml cells/well; 2 ml medium added per well in 24-well plates) were cultured in DMEM containing 10% FBS and 1% P/S for 3 days in a water-saturated atmosphere containing 5% CO2 and 95% air at 37° C. (23). The cells were cultured in the presence or absence of vehicle (ethanol; final concentration 0.1%), alendronate (0.1, 1, 10 or 100 μM), genistein (0.1, 1, 10 or 100 μM), or alendronate (0.1, 1, 10 or 100 μM) plus genistein (0.1, 1, 10, or 100 After culture, cells were detached from each culture dish and counted. Following trypsinization of each of culture dish using 0.2% trpysin plus 0.02% EDTA in Ca^2+/Mg^2+-free PBS for 2 min at 37° C., cells detached from the dish were collected following centrifugation at 150×g (4° C.) for 5 min (23). Cells were resuspended in PBS solution and stained with eosin. […] For each dish, the average of two counts was calculated. […]

RAW267.4 cells [2] = experiment: Cell death of confluent RAW267.4 cells (cell count after additional 2 days culture); settings: single agent 0.1, 1.0, 10 and 100 μM, FIGS. 2A and B
Description: RAW267.4 cells were cultured for 3 days in Dulbecco's modification of Eagle's medium, and then the cells were additionally cultured for 2 days in the presence or absence of (A) alendronate, (B) genistein or alendronate plus genistein. After culture, the number of attached cells on the dish was counted.
RAW267.4 cells (1×10^5/ml cells/well; 2 ml medium added per well in 24-well plates) were cultured in DMEM containing 10% FBS and 1% P/S for 3 days when confluence was reached (24). The cells were then cultured for an additional 2 days in the presence or absence of alendronate (0.1, 1, 10 or 100 μM), genistein (0.1, 1, 10 or 100 μM), or alendronate (0.1, 1, 10 or 100 μM) plus genistein (0.1, 1, 10 or 100 μM). After culture, cells were detached from each culture dish and counted as described for the cell proliferation assay.

RAW264.7 cells = experiment: Osteoclastogenesis assay, RANKL-induced, TRAP staining (TRAP-positive multinucleated cells); settings: RANKL 30 ng/ml, 6 days; for effect on RANKL-stimulated osteoclastic differentiation (TRAP+ multinucleated cells): FIG. 3B; for effect on RANKL-induced osteoclastic differentiation (TRAP+ multinucleated cells): FIG. 3A
Description: Cells were cultured for 6 days with RANKL (30 ng/ml) pre-incubated for 10 min with crosslinking anti-poly-histidine antibody (2.5 μg/ml) in the presence or absence of vehicle (0.1% ethanol), (A) alendronate, (B) genistein or (C) alendronate plus genistein. After 6 days of culture, the cells were fixed and stained for TRAP.
RAW264.7 cells were cultured in 96-well plates in DMEM supplemented with 10% FBS and 1% P/S at a density of 1×10^4 cells/well. Cells were cultured for 6 days with RANKL (30 ng/ml) pre-incubated for 10 min with crosslinking anti-poly-histidine antibody (2.5 μg/ml; IC050P; R&D Systems, Inc., Minneapolis, Minn., USA) to induce osteoclast formation (21,22), in the presence or absence of vehicle (ethanol; final concentration 0.1%), alendronate (0.1, 1, 10 or 100 μM), genistein (0.1, 1, 10 or 100 μM), or alendronate (0.1, 1, 10 or 100 μM) plus genistein (0.1, 1, 10 or 100 μM). After 6 days of culture, the cells were fixed and stained for TRAP, a specific marker of the osteoclast phenotype, using a leukocyte acid phosphatase kit. […] TRAP-positive multinucleated cells (MNCs with at least three nuclei) were considered to be osteoclast-like cells, and the cells were counted using light microscopy (Olympus MTV-3). MNC scores are expressed as the mean±standard deviation of six cultures with two replicate wells per data set using different dishes and cell preparation.

SMILES	effect on the proliferation of RAW267.4 cells (number of attached cells) vs control (RAW267.4 cells [1])	alteration in the number of RAW267.4 cells (cell death) (RAW267.4 cells [2])	effect on RANKL-stimulated osteoclastic differentiation (TRAP+ multinucleated cells) (RAW264.7 cells; genistein alone 0.1 and 1.0 μM)	effect on RANKL-stimulated osteoclastic differentiation (TRAP+ multinucleated cells) (RAW264.7 cells; genistein alone 10 and 100 μM)	effect on RANKL-induced osteoclastic differentiation (TRAP+ multinucleated cells) (RAW264.7 cells; alendronate alone 100 μM)	effect on RANKL-induced osteoclastic differentiation (TRAP+ multinucleated cells) (RAW264.7 cells; alendronate alone 0.1, 1.0 and 10 μM)
O=c1c(-c2ccc(O)cc2)coc2cc(O)cc(O)c12 [genistein, 4′,5,7-trihydroxyisoflavone]	did not have a significant effect	did not cause a significant alteration	did not reveal an effect	suppressed		
NCCCC(O)(P(=O)(O)O)P(=O)(O)O [alendronate]	did not have a significant effect	did not cause a significant alteration			suppressed	had no significant effect

— US20190380999A1, “COMBINATIONS OF GENISTEIN AND BISPHOSPHONATES” (Primus Pharmaceuticals, Inc., priority 2018, published 2019)
